Measured values from patent US20260216232A1, “SEVUPARIN FOR THE TREATMENT OF CHRONIC KIDNEY DISEASE” (Modus Therapeutics AB, priority 2022, published 2026).
Like-named read-outs stand apart in the source and are kept apart here. Marks after values point to notes of the source that are not given here.

How the values were obtained:
[1] = system: Kidney Disease and Anemia of Kidney Disease (KD) Mouse Model
Excerpt: (§1) All experimental procedures were approved by the Animal Care and Use Committee of University of Brescia. All animals were maintained on normal diet (“Chow” or Standard diet, 4RF21, obtained from Mucedola s.r.l) if not specified otherwise as part of the “Anemia of Chronic Kidney Disease (CKD) mouse model” experiment as described below.
(§2) Animals. The C57BL/6J male mice were purchased from Envigo RMS S.r.l.
(§3) Kidney damage, kidney disease and anemia were induced by an adenine high phosphorus diet denoted as “adenine rich diet” (ARD) (0.2% Adenine; 0.9% Phosphorus; 0.6% Calcium; 20% Casein; Cod. S1102-E750 (purchased from Charles River, Manufacturer: Ssniff Spezialdiäten GmbH).
(§4) ARD was fed to C57BL/6J male mice having reached an age of five-weeks. […] All animals were maintained on ARD or normal diet (Standard diet, 4RF21, Mucedola s.r.l), at timings and extents described in detail for each experiment below. Groups of mice were also kept under normal diet (Standard diet) as healthy control group, for each experiment. Mice had access to food and diet ad libitum.
(§5) Adenine rich diet (ARD) (0.2% Adenine; 0.9% Phosphorus; 0.6% Calcium; 20% (Ssniff Spezialdiäten GmbH), sevuparin 10 mg/kg (Opocrin S.p.A., Apotek Produktion & Laboratorier AB, subcutaneously administered, sc), erythropoietin (EPO, Darbepoietin alfa, Aranesp, AMGEN INC.) intraperitoneally adminstered, ip)
(§6) The hematological parameters hemoglobin (Hb) and hematocrit (Ht) were analyzed using the Hemo Vet Instrument (Infratech) by collecting a single drop of blood from the dorsal pedal vein. The animals weight were monitored weekly in the morning at the following time points of treatment: At start of treatment (P0); after one week of treatment (T1); after two weeks of treatment (T2); after three weeks of treatment (T3); after four weeks of treatment (T4); after five weeks of treatment (T5); after six weeks of treatment (T6); after seven weeks of treatment (T7); after eight weeks of treatment (T8); and after nine weeks of treatment (T9).
(§7) Reticulocyte hemoglobin content (Ret-He), serum hepcidin and serum creatinine (analysis performed by Izler Institute) were analyzed at the end of each experiment)
(§8) Mice were sacrificed at the indicated time points and blood and kidneys were collected for analysis at the end-point of each experiment.
(§9) At the end-point, mouse serum hepcidin was quantified using ELISA kit (Cod. SKU #HMC-001; Intrinsic LifeScience).
(§10) Serum creatinine and blood Reticulocytes-hemoglobin (Ret-He) were analyzed by IZLER Institute (Istituto Zooprofilattico Sperimentale della Lombardia e Dell′Emilia Romagna), using standard procedures.
ARD Pretreatment for 9 Weeks Followed by 3 Weeks Treatment with Either Control or Sevuparin
(§11) C57BL/6J male mice were exposed to ARD pretreatment for 9 weeks followed by 3 weeks of randomized allocation to treatments as defined below still with maintained ARD exposure. One group of mice was given normal diet (no ARD) for the entire experiment, as healthy control. • a) Treatment with control: mice treated with PBS s.c. every day for 3 weeks. • b) Treatment with sevuparin: mice treated with 10 mg/kg Sevuparin s.c. every day for 3 weeks.

mouse kidneys [2] = settings: 3 weeks treatment, 20x magnification, compared to kidneys without sevuparin
Description: as §11

[3] = system: Kidney Disease and Anemia of Kidney Disease (KD) Mouse Model; assay: Anemia of CKD mouse model (adenine rich diet), Example 2: blood and serum analysis, body weight; type: in vivo, C57BL/6J male mice
Excerpt: as §1, §2, §3, §4, §5, §6, §7, §8, §9, §10
ARD Pre-Treatment for 9 Weeks Followed by 2 Weeks Treatment with Either Control, Sevuparin, Erythropoietin (EPO) or a Combination of EPO and Sevuparin, Followed by 7 Weeks Recovery without ARD but with Maintained Treatments.
(§12) C57BL/6J male mice were exposed to ARD pretreatment for 9 weeks followed by 2 weeks of randomized allocation to treatments as defined below still with maintained ARD exposure, after which ARD was omitted but treatments were maintained during 7 weeks of recovery. One group of mice was given normal diet (no ARD) for the entire experiment, as healthy control. • a) Treatment with control: mice treated with PBS s.c. every day for 2+7 weeks. • b) Treatment with sevuparin: mice treated with 10 mg/kg Sevuparin s.c. every day for 2+7 weeks. • c) Treatment with […]: mice treated with 50 IU EPO i.p. twice a week for 2+7 weeks. • d) Treatment with EPO+sevuparin: mice treated with 50 IU EPO i.p. twice a week and 10 mg/kg Sevuparin s.c. every day for 2+7 weeks.
Hemoglobin (Hb), hematocrit (Ht), weigh (wt), serum-creatitine (S-crea), reticulocyte hemoglobin (Ret-He) content and serum-hepcidin (nM) was measured in the mice.

mouse kidneys [4] = assay: Example 2: macroscopic and histological status of kidneys (H&E, Sirius Red); type: in vivo, C57BL/6J male mice
Description: as §12

[5] = system: Kidney Disease and Anemia of Kidney Disease (KD) Mouse Model; assay: Anemia of CKD mouse model (adenine rich diet), Example 3: blood and serum analysis, body weight; type: in vivo, C57BL/6J male mice
Excerpt: as §1, §2, §3, §4, §5, §6, §7, §8, §9, §10
ARD Pretreatment for 5.5 Weeks Followed by 3 or 6 Weeks Treatment with Control, Sevuparin, Erythropoietin (EPO), or a Combination of EPO and Sevuparin
C57BL/6J male mice were exposed to ARD pretreatment for 5.5 weeks followed by either 3 or 6 weeks of randomized allocation to treatments as defined below still with maintained ARD exposure. One group of mice was given normal diet (no ARD) for the entire experiment, as healthy control. • a) Treatment control: mice treated with PBS s.c. every day for 3 and 6 weeks respectively. • b) Treatment with sevuparin: mice treated with 10 mg/kg Sevuparin s.c. every day for 3 and 6 weeks respectively. • c) Treatment with EPO: mice treated with 50 IU EPO i.p. twice a week for 3 weeks and mice treated with 50 IU EPO i.p. twice a week for 3 weeks followed by treatment with 25 IU EPO i.p. once a week for the subsequent 3 weeks. • d) Treatment with EPO+sevuparin: mice treated with 10 mg/kg sevuparin s.c. every day and 50 IU EPO i.p. twice a week for 3 weeks and mice treated with 10 mg/kg sevuparin s.c. every day and 50 IU EPO i.p. twice a week for the first 3 weeks followed by treatment with 10 mg/kg sevuparin s.c. every day and 25 IU EPO i.p. once a week for the subsequent 3 weeks.

factor IIa = settings: definition of sevuparin; no test described; cited from earlier work
factor Xa = settings: definition of sevuparin; no test described; cited from earlier work
[6] = 3 weeks treatment, compared to mice not treated with sevuparin
[7] = ARD 9 weeks, then sevuparin 10 mg/kg s.c. every day for 3 weeks with maintained ARD, mean
[8] = 2+7 weeks treatment, compared to mice without any treatment / other treatment groups
[9] = ARD 9 weeks, then 2 weeks treatment on ARD + 7 weeks without ARD, sevuparin 10 mg/kg s.c. every day, EPO 50 IU i.p. twice a week, mean
[10] = ARD 5.5 weeks then treatment with maintained ARD
[11] = ARD 5.5 weeks, then 3 or 6 weeks treatment with maintained ARD (time point not given), sevuparin 10 mg/kg s.c. every day, EPO 50 IU i.p. twice a week (25 IU once a week for subsequent 3 weeks), mean

Substance: sevuparin
- Hematocrit levels, in words [1, 6]: increased
- Hemoglobin blood levels, in words [1, 6]: increased
- blood level of reticulocyte-hemoglobin (Ret-He), in words [1, 6]: increased
- body weight, in words [1, 6]: gained body weight
- serum creatinine level, in words [1, 6]: increased
- serum level of hepcidin, in words [1, 6]: reduced
- S-Hepcidin ([1]; ARD 9 weeks, then sevuparin 10 mg/kg s.c. every day for 3 weeks with maintained ARD, ELISA, mean): 36.83^(18) nM
- Hb [1, 7]: 10.80^(3) g/dL
- Ht [1, 7]: 31.67^(6) %
- Ret-He [1, 7]: 14.33^(15) pg
- S-Crea [1, 7]: 0.73^(12) mg/dL
- Wt [1, 7]: 15.00^(9) g
- effect on the micrographs of the mouse kidneys (FIG. 1G) (mouse kidneys [2]): positive effect
- serum level of hepcidin, in words ([3]; 2+7 weeks treatment): markedly reduced
- blood level of reticulocyte hemoglobin (Ret-HE), in words [3, 8]: increased
- body weight (wt), in words [3, 8]: increased
- hematocrit (Ht), in words [3, 8]: increased
- serum level of creatinine (s-Crea), in words [3, 8]: reduced
- Hb [3, 9]: 9.45^(3) g/dL
- Ht [3, 9]: 27.75^(8) %
- Ret-He [3, 9]: 15.78^(23) pg
- S-Crea [3, 9]: 0.78^(18) mg/dL
- S-Hepcidin [3, 9]: 22.32^(28) nM
- Wt [3, 9]: 25.75^(13) g
- kidney damage, H&E staining (FIG. 2B) (mouse kidneys [4]; 40x magnification, 11 weeks of adenine diet, compared to the untreated control): reduced the damage
- collagen deposits (fibrosis), Sirius Red Staining (FIG. 2B) (mouse kidneys [4]; 40x magnification, compared to AD 11 weeks+PBS): reduction of the collagen deposits
- physical status of the mouse kidneys, macroscopic photographs (FIG. 2A) (mouse kidneys [4]; compared to mouse kidneys that had not received the same therapy): substantially less cysts, more normal colour and a more homogenous appearance
- blood level of hemoglobin (Hb), in words [5, 10]: did not increase
- body weight (wt), in words [5, 10]: did not increase
- hematocrit (Ht), in words [5, 10]: did not increase
- serum level of creatinine (s-Crea), in words ([5]; ARD 5.5 weeks then treatment with maintained ARD, compared to mice without any treatment): reduced
- Hb [5, 11]: 9.77^(3) g/dL
- Ht [5, 11]: 28.67^(8) %
- Ret-He [5, 11]: 14.45^(23)** pg
- S-Crea [5, 11]: 0.82^(18) mg/dL
- Wt [5, 11]: 17.60^(13) g
- impact on the serum level of hepcidin (FIG. 3A) ([5]; at 3 weeks treatment): beneficial impact
- beneficial impact on the serum level of hepcidin vs control (FIG. 3B) ([5]; at 6 weeks treatment): no longer present
- antifactor 11a activity (factor IIa): up to 10 IU/mg
- antifactor Xa activity (factor Xa): up to 10 IU/mg
